Measured values reported in patent US9802885B2, “Substituted cyclohexane compounds” (TAKASAGO INTERNATIONAL CORPORATION (USA), priority 2011, dated 2017).
Entries after “also recorded” stand apart in the source; their conditions may differ.

Assays:
[1] = Organoleptic properties of the compounds of Formulas I, II and III (Tables 1-3); conditions: in vivo
From the text: For example, the compounds of the presently disclosed subject matter impart cooling, warming, burning, tingling, numbing, salivating, musty, bitter, and/or astringent sensation. In addition, the compounds of the presently disclosed subject matter can impart tropical, fruity (e.g., berry), minty, phenolic, and vegetable (e.g., peppery) notes as well as creaminess and sweetness to flavor ingredients. The organoleptic properties of certain compounds of Formulas I, II, and III are described in Tables 1, 2, and 3, respectively.

[2] = generally known; cited from earlier work
[3] = test system: expertly trained evaluators; assay: Tasting of mouthwatering composition in water (Example 19); format: in vivo; conditions: 0.5% w/w Compound 10, 0.05% in water (2.5 ppm)
[4] = test system: trained evaluators; assay: Enhancement of the warming effect of vanillyl butyl ether (VBE), heat intensity and preference (Example 20); format: in vivo
Experimental: Compound 1 was tested for its synergistic enhancement of the warming effect from pungent compound vanillyl butyl ether (VBE). A stock solution of 1% VBE in ethanol was prepared. This stock solution was then added at 0.2% in water to produce a 20 ppm tasting solution (Control). To subsequent 20 ppm tasting solutions was added 2.5 ppm of Compound 1 (Formula G) and 2.5 ppm WS-3 (Formula H). Ten trained evaluators were asked to rate heat intensity in the mouth and rank the three samples for preference after swishing and spitting the sample.

[5] = test system: trained evaluators; assay: Rated warming level of hot and spicy flavor composition in water, swish and spit (Example 17); format: in vivo
Experimental: Each evaluator was asked to rate the warming level in the mouth on a scale of 1-9 over a 5 minute period after swishing & spitting the sample.

[6] = test system: expertly trained evaluators; assay: Rated cooling intensity of mouth-rinse composition (Example 21); format: in vivo
Experimental: Compound 8 was tested in the following mouth-rinse composition Formula J and evaluated over a 20 minute period by five expertly trained evaluators, compared to two other mint flavor compositions, a Control and Formula K that contains WS-3 as shown below. The compositions were each dissolved at 0.1% in the following mouth-rinse base (50 ppm dosage of Compound 8 & WS-3 respectively). The evaluators were asked to rate cooling intensity on a scale of 1-9 in the mouth at 0, 0.5, 1, 5, 10, and 20 minutes.

[7] = test system: trained evaluators; assay: Tasting of wasabi-type flavor composition in water (Example 18); format: in vivo
From the text: Formula C was selected as being preferred by 7 out of the 8 evaluators.

| SMILES | Organoleptic Properties [1] | other results |
| --- | --- | --- |
| C=C(C)[C@@H]1CC[C@@H](C)C[C@H]1OC(=O)C(C)O (stereo partly drawn) [Compound 11, (1R,2S,5R)-5-methyl-2-(prop-1-en-2-yl)cyclohexyl 2-hydroxypropanoate] | minty, bitter, cooling |  |
| CCNC(=O)C1CC(C)CCC1C(C)C (centres unmarked) [WS-3, N-ethyl-5-methyl-2-isopropylcyclohexanecarboxamide] |  | sensation provided by menthyl analog [2]: clean cool |
| C=C(C)[C@@H]1CC[C@@H](C)C[C@H]1OCC(=O)O [Compound 14, (1R,2S,5R)-2-((5-methyl-2-(prop-1-en-2-yl)cyclohexyl)oxy)acetic acid] | creamy; also recorded: fruity, |  |
| C=C(C)[C@@H]1CC[C@@H](C)C[C@H]1C(=O)NC(C)CC (stereo partly drawn) [Compound 5, (1R,2R,5R)—N-(sec-butyl)-5-methyl-2-(prop-1-en-2-yl)cyclohexanecarboxamide] | bitter, cooling |  |
| C=C(C)[C@@H]1CC[C@@H](C)C[C@H]1OC(=O)CC(C)O (stereo partly drawn) [Compound 13, (1R,2S,5R)-5-methyl-2-(prop-1-en-2-yl)cyclohexyl 3-hydroxybutanoate] | bitter, mild peppery |  |
| C=C(C)[C@@H]1CC[C@@H](C)C[C@H]1OCC(=O)NCC(C)C [Compound 15, (1R,2S,5R)—N-isobutyl-2-((5-methyl-2-(prop-1-en-2-yl)cyclohexyl)oxy)acetamide] | bitter,; also recorded: tingle/; also recorded: burning |  |
| C=C(C)[C@@H]1CC[C@@H](C)C[C@H]1OC(=O)CCC(=O)O [Compound 9, (1R,2S,5R)-4-((−5-methyl-2-(prop-1-en-2-yl)cyclohexyl)oxy)-4-oxobutanoic acid] | fruity, chemical, slight; also recorded: cooling/burn |  |
| C=C(C)[C@@H]1CC[C@@H](C)C[C@H]1C(=O)NCC(=O)OCC [Compound 6, (1R,2R,5R)-ethyl 2-(5-methyl-2-(prop-1-en-2-yl)cyclohexanecarboxamido)acetate] | bitter, cooling, irritation |  |
| C=C(C)[C@@H]1CC[C@@H](C)C[C@H]1C(=O)NC1CC1 [Compound 2, (1R,2R,5R)—N-cyclopropyl-5-methyl-2-(prop-1-en-2-yl)cyclohexanecarboxamide] | slight cooling, salivating |  |
| C=C(C)[C@@H]1CC[C@@H](C)C[C@H]1OC(=O)CCCC(=O)O [Compound 10, (1R,2S,5R)-5-((−5-methyl-2-(prop-1-en-2-yl)cyclohexyl)oxy)-5-oxopentanoic acid] | sweet, fruity, slight; also recorded: cooling | mouthwatering effect compared to control Formula F [3]: extended cooling and increased astringency |
| C=C(C)[C@@H]1CC[C@@H](C)C[C@H]1C(=O)Nc1ccc(OC)cc1 [Compound 7, (1R,2R,5R)—N-(4-methoxyphenyl)-5-methyl-2-(prop-1-en-2-yl)cyclohexanecarboxamide] | musty, astringent, slight cooling |  |
| C=C(C)[C@@H]1CC[C@@H](C)C[C@H]1C(=O)NCC [Compound 1, (1R,2R,5R)—N-ethyl-5-methyl-2-(prop-1-en-2-yl)cyclohexanecarboxamide] | cooling, tingling, and numbing sensation | enhancement of the warming effect of pungent compounds compared to WS-3 [4]: enhances the warming effect of pungent compounds much better; heat/warming perception compared to control Formula B ([5]; 0.5% w/w Compound 1): enhance the initial heat perception; heat/warming perception compared to control Formula B ([5]; 0.5% w/w Compound 1, listed as N-ethyl-5-methyl-2-(prop-1-en-2-yl)cyclohexanecarboxamide): enhances the warming perception |
| C=C(C)[C@@H]1CC[C@@H](C)C[C@H]1C(=O)Nc1ccc(CC#N)cc1 [Compound 8, (1R,2R,5R)—N-(4-(cyanomethyl)phenyl)-5-methyl-2-(prop-1-en-2-yl)cyclohexanecarboxamide] | phenolic, strong burning | cooling perception of the mouth-rinse composition compared to Control and WS-3 (Formula K) [6]: enhances and lengthens the cooling of a mouth-rinse composition better than WS-3; burning sensation and character compared to control Formula D ([7]; 0.5% w/w Compound 8): more intense and lingering burning sensation; burning sensation and character compared to control Formula D ([7]; 0.5% w/w Compound 8, listed as N-(4-(cyanomethyl)phenyl)-5-methyl-2-(prop-1-en-2-yl)cyclohexanecarboxamide): improved lingering burning sensation |
| C=C(C)[C@@H]1CC[C@@H](C)C[C@H]1OC(=O)CC(C)=O [Compound 12, (1R,2S,5R)-5-methyl-2-(prop-1-en-2-yl)cyclohexyl 3-oxobutanoate] | bitter, fruity |  |
| C=C(C)[C@@H]1CC[C@@H](C)C[C@H]1C(=O)NC(C)(C)C [Compound 4, (1R,2R,5R)—N-(tert-butyl)-5-methyl-2-(prop-1-en-2-yl)cyclohexanecarboxamide] | slight burn, warming,; also recorded: irritation |  |
| C=C(C)[C@@H]1CC[C@@H](C)C[C@H]1C(=O)NC(C)C [Compound 3, (1R,2R,5R)—N-isopropyl-5-methyl-2-(prop-1-en-2-yl)cyclohexanecarboxamide] | slight cooling |  |
